In brackets after ≈: the same amount, converted by molar mass.
Key:
human MAO-A = target: T1, human MAO-A (Homo sapiens, UniProt P21397); assay: In vitro MAO-A enzymatic activity (kynuramine substrate, fluorescence); assay type: biochemical; settings: membranes from SF9 cells, kynuramine 30 μM, read-out: Inhibitory activity of human MAO, Ki
T1 construct: purchased Gentest, BD, USA; host or cells: SF9 insect cells (membranes)
T1 sequence (P21397 1-527): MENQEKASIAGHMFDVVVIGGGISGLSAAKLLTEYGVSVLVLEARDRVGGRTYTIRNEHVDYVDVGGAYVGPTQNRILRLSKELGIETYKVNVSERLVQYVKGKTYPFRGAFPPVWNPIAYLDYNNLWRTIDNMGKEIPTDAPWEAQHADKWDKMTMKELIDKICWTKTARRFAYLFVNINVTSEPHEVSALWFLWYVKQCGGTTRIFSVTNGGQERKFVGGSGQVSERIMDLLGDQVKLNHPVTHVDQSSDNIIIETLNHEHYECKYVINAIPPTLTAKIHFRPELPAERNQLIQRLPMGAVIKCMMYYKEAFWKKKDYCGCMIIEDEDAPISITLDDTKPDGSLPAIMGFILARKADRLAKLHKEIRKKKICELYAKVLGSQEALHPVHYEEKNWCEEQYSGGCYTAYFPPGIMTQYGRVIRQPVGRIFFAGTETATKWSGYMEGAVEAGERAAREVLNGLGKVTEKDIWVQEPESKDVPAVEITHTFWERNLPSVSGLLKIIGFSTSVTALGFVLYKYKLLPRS

[1] = tested on: E. faecalis ATCC 51575 MDR 311; assay: MIC by standard microdilution (NCCLS M7-A5); assay type: cell-based; settings: Enterococcus faecalis, ATCC51575, read-out: In vitro activities against bacteria, MIC
[2] = tested on: S. aureus ATCC 43300 MR 214; assay: MIC by standard microdilution (NCCLS M7-A5); assay type: cell-based; settings: Staphylococcus aureus, ATCC43300, read-out: In vitro activities against bacteria, MIC
[3] = tested on: S. aureus ATCC 25923 MS 319; assay: MIC by standard microdilution (NCCLS M7-A5); assay type: cell-based; settings: Staphylococcus aureus, ATCC25923, read-out: In vitro activities against bacteria, MIC
[4] = tested on: S. pneumoniae ATCC 49619 PR 215; assay: MIC by standard microdilution (NCCLS M7-A5); assay type: cell-based; settings: Streptococcus pneumoniae, ATCC49619, read-out: In vitro activities against bacteria, MIC
human MAO-B = target: T2, human MAO-B (Homo sapiens, UniProt P27338); assay: In vitro MAO-B enzymatic activity (kynuramine substrate, fluorescence); assay type: biochemical; settings: membranes from SF9 cells, kynuramine 30 μM, read-out: Inhibitory activity of human MAO, Ki
T2 construct: purchased Gentest, BD, USA; host or cells: SF9 insect cells (membranes)
T2 sequence (P27338 1-520): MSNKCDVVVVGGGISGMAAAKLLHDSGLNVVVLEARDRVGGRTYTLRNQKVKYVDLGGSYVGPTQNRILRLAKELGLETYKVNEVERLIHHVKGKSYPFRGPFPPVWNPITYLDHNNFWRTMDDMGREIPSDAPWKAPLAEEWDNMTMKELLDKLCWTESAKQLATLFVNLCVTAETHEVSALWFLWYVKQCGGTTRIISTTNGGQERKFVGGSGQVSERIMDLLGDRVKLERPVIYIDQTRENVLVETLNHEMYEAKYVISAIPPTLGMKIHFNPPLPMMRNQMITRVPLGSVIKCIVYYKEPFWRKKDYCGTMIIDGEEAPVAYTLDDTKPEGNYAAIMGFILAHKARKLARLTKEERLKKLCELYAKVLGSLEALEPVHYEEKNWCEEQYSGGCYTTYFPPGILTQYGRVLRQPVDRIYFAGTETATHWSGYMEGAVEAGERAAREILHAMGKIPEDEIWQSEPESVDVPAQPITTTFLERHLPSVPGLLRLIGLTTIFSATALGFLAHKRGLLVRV

[5] = tested on: E. faecalis ATCC 29212 53; assay: MIC by standard microdilution (NCCLS M7-A5); assay type: cell-based; settings: Enterococcus faecalis, ATCC29212, read-out: In vitro activities against bacteria, MIC
[6] = tested on: Moraxella catarrhalis HCl-78 259/339; assay: MIC by standard microdilution (NCCLS M7-A5); assay type: cell-based; settings: HCL78259/339, read-out: In vitro activities against bacteria, MIC
[7] = tested on: E. faecium ATCC 51559 MDR 312; assay: MIC by standard microdilution (NCCLS M7-A5); assay type: cell-based; settings: Enterococcus faecium, ATCC51559, read-out: In vitro activities against bacteria, MIC
[8] = tested on: S. epidermidis ATCC 12228 MR 11; assay: microbe, parasite or virus in culture; assay type: cell-based; settings: Staphylococcus epidermidis, ATCC12228, read-out: In vitro activities against bacteria, MIC
[9] = tested on: Moxarella, Pasteurella and Bacteroides spp.; settings: background statement; cited from earlier work

Row | Compound | Ki (human MAO-A) [µM] | MIC [1] [µg/mL] | MIC [2] [µg/mL] | MIC [3] [µg/mL] | MIC [4] [µg/mL] | Ki (human MAO-B) [µM] | MIC [5] [µg/mL] | MIC [6] [µg/mL] | MIC [7] [µg/mL] | MIC [8] [µg/mL] | MICs [9] [µg/mL]
1 | O=C1O[C@@H](CNC(=S)c2ccco2)CN1c1ccc(N2CCOCC2)c(F)c1 [Example 2, N-[[(5S)-3-[3-fluoro-4-(4-morpholinyl)-phenyl]-2-oxo-5-oxazolidinyl]methyl]furan-2-yl-thioamide] | 170 | 2 (≈ 4.93 µM) | 2 (≈ 4.93 µM) | 8 (≈ 19.7 µM) | 2 (≈ 4.93 µM) | 5.3 | 2 (≈ 4.93 µM) | 2 (≈ 4.93 µM) | 1 (≈ 2.47 µM) | – | –
2 | O=C1O[C@@H](CNC(=S)c2ccoc2)CN1c1ccc(N2CCOCC2)c(F)c1 [Example 4, N-[[(5S)-3-[3-fluoro-4-(4-morpholinyl)-phenyl]-2-oxo-5-oxazolidinyl]methyl]furan-3-yl-thioamide] | ≥ 250 | 1 (≈ 2.47 µM) | 1 (≈ 2.47 µM) | 1 (≈ 2.47 µM) | 1 (≈ 2.47 µM) | 2.4 | 1 (≈ 2.47 µM) | 1 (≈ 2.47 µM) | 2 (≈ 4.93 µM) | 1 (≈ 2.47 µM) | –
3 | CC(=S)N1CCN(c2ccc(N3C[C@H](CNC(=S)c4ccoc4)OC3=O)cc2F)CC1 [Example 7, N-[[(5S)-3-[3-fluoro-4-(4′-thioacetyl-4-piperazinyl)-phenyl]-2-oxo-5-oxazolidinyl]methyl]furan-3-yl-thioamide] | ≥ 200 | 0.06 (≈ 0.13 µM) | 0.5 (≈ 1.08 µM) | 0.5 (≈ 1.08 µM) | 0.5 (≈ 1.08 µM) | 2.8 | 0.13 (≈ 0.281 µM) | 0.25 (≈ 0.54 µM) | 0.5 (≈ 1.08 µM) | 0.5 (≈ 1.08 µM) | –
4 | O=C1O[C@@H](CNC(=S)c2ccco2)CN1c1ccc(N2CCSCC2)c(F)c1 [Example 9, N-[[(5S)-3-[3-fluoro-4-(4-thiomorpholinyl)-phenyl]-2-oxo-5-oxazolidinyl]methyl]furan-2-yl-thioamide] | 47.5 | 2 (≈ 4.74 µM) | 4 (≈ 9.49 µM) | 2 (≈ 4.74 µM) | 4 (≈ 9.49 µM) | 1 | 2 (≈ 4.74 µM) | – | 8 (≈ 19 µM) | 4 (≈ 9.49 µM) | –
5 | O=C1O[C@@H](CNC(=S)c2ccoc2)CN1c1ccc(N2CCSCC2)c(F)c1 [Example 11, N-[[(5S)-3-[3-fluoro-4-(4-thiomorpholinyl)-phenyl]-2-oxo-5-oxazolidinyl]methyl]furan-3-yl-thioamide] | ≥ 250 | 1 (≈ 2.37 µM) | 1 (≈ 2.37 µM) | 2 (≈ 4.74 µM) | 1 (≈ 2.37 µM) | 0.6 | 1 (≈ 2.37 µM) | 4 (≈ 9.49 µM) | 1 (≈ 2.37 µM) | 1 (≈ 2.37 µM) | –
6 | CC(=O)NC[C@H]1CN(c2ccc(N3CCOCC3)c(F)c2)C(=O)O1 [Linezolid, N-[[(5S)-3-[3-Fluoro-4-(4-morpholinyl)phenyl]-2-oxo-5-oxazolidinyl]methyl]acetamide, reference compound] | 7 | 0.5 (≈ 1.48 µM) | 1 (≈ 2.96 µM) | 2 (≈ 5.93 µM) | 2 (≈ 5.93 µM) | 0.48 | 0.5 (≈ 1.48 µM) | 2 (≈ 5.93 µM) | 1 (≈ 2.96 µM) | 1 (≈ 2.96 µM) | 2 to 8

Source: patent publication US20090005369A1, “Oxazolidinone Compounds and Compositions and Methods Related Thereto” (priority 2004, published 2009)
